Results from the supplement of paper PMC8882468.
± gives the standard deviation of the averaged measurements.

What was measured:
Experiment in all cases: CTG-3D luminescence at 96 h relative to day-0 seeding control (ratio to day 0); higher = more growth / less cytotoxicity; PDxO 3D drug screen, 96 h, CTG-3D normalised to day-0 seeding control.
HCI-001 = tested on: HCI-001 (organoid from a triple-negative breast cancer xenograft)
HCI-005.E2 = tested on: HCI-005.E2 (organoid from a breast cancer xenograft with a HER2-positive history)
HCI-003.E2 = tested on: HCI-003.E2 (organoid from an ER-positive breast cancer xenograft)
HCI-017.E2 = tested on: HCI-017.E2 (organoid from an ER-positive breast cancer xenograft)
HCI-024 = tested on: HCI-024 (organoid from a breast cancer xenograft)
HCI-012 = tested on: HCI-012 (organoid from a breast cancer xenograft)

O=C(O)C1(C(=O)O)CCC1.[NH2-].[NH2-].[Pt+2] [carboplatin]
CTG-3D luminescence at 96 h
Details	12.5 pM	0.00025 µM	0.005 µM	0.1 µM	1 µM	10 µM	100 µM	625 fM
HCI-001, days in culture: 240	1.59	1.15	0.945	1.27	1.63	1.29	0.471	1.36
HCI-001, days in culture: 260	1.71	0.978	2.01	1.09	1.41	1.48	0.569	0.928
HCI-001, days in culture: 269	1.59	1.61	1.58	1.8	1.83	2.14	0.918	1.75
HCI-001, days in culture: 327	1.5	1.43	2.04	1.74	1.53	1.15	0.592	1.83
HCI-001, days in culture: 346	1.42	1.53	1.03	1.02	1.47	1.47	1.01	1.35
HCI-001, days in culture: 364	1.45	1.09	1.54	0.839	1.01	1.56	0.829	1.51
HCI-012, days in culture: 143	2.05	1.91	1.99	2.46	2.43	1.87	0.161	1.81
HCI-012, days in culture: 162	2.3	1.93	2.03	2.94	2.7	2.14	0.261	2.61
HCI-012, days in culture: 201	2.62	1.81	1.46	1.53	2.08	1.48	0.595	1.38
HCI-017.E2, days in culture: 85	2.99	2.47	2.94	2.35	2.71	2.18	2.37	2.62
HCI-024, days in culture: 105	1.38	1.54	1.37	1.52	1.36	1.64	0.14	1.71
HCI-024, days in culture: 122	1.94	1.95	1.97	1.65	1.8	2.27	0.189	2.78
HCI-024, days in culture: 163	2.01	2.27	2.06	2.67	2.1	2.03	0.608	2.43

CTG-3D luminescence at 96 h
Details	12.5 pM	0.00025 µM	0.005 µM	0.1 µM	1 µM	10 µM	100 µM	625 fM
HCI-003.E2	2.12 ± 0.57	2.49 ± 0.68	2.22 ± 0.38	2.23 ± 0.48	2.32 ± 0.66	2.35 ± 0.96	1.65 ± 0.56	2.11 ± 0.35
HCI-005.E2	1.69 ± 0.46	2.11 ± 0.47	1.73 ± 0.066	1.87 ± 0.55	1.51 ± 0.36	1.24 ± 0.26	0.225 ± 0.099	1.47 ± 0.15
HCI-017.E2	1.88 ± 0.13	2.076 ± 0.0078	2.32 ± 0.15	2.4 ± 0.19	2.25 ± 0.091	2.08 ± 0.058	1.9 ± 0.16	1.97 ± 0.042

NC(=O)Nc1cc(-c2cccc(F)c2)sc1C(=O)N[C@H]1CCCNC1 [AZD7762]
CTG-3D luminescence at 96 h
Details	12.5 pM	0.00025 µM	0.005 µM	0.1 µM	1 µM	10 µM	100 µM	625 fM
HCI-001, days in culture: 240	1.67	0.879	1.07	1	0.663	0.189	0.00603	1.14
HCI-001, days in culture: 260	1.93	1.02	1.44	0.935	0.787	0.243	0.00469	1.07
HCI-001, days in culture: 269	1.68	1.84	1.41	1.25	0.48	0.388	-0.00671	1.59
HCI-001, days in culture: 327	1.38	1.77	1.85	1.38	0.567	0.168	0.00741	1.6
HCI-001, days in culture: 346	1.38	1.49	1.23	0.907	0.392	0.184	0.0108	1.21
HCI-001, days in culture: 364	1.53	1.16	1.51	1.03	0.466	0.201	0.00492	1.71
HCI-012, days in culture: 143	2.11	2.03	2.04	2.67	1.75	0.0896	0.000673	1.69
HCI-012, days in culture: 162	2.58	2.41	1.89	2.83	1.99	0.16	-5.12e-05	3.15
HCI-012, days in culture: 201	2.51	2.18	1.69	1.39	2.14	0.141	0.00358	1.9
HCI-017.E2, days in culture: 85	2.53	3.05	2.76	2.37	1.67	1.26	0.0135	2.7
HCI-024, days in culture: 105	1.28	1.48	1.42	0.635	0.236	0.228	0.00249	1.9
HCI-024, days in culture: 122	1.65	2.38	1.93	0.853	0.308	0.273	0.00352	2.89
HCI-024, days in culture: 163	1.95	1.96	2.02	1.27	0.309	0.267	0.00535	2.34

CTG-3D luminescence at 96 h
Details	12.5 pM	0.00025 µM	0.005 µM	0.1 µM	1 µM	10 µM	100 µM	625 fM
HCI-003.E2	2.21 ± 0.83	2.59 ± 0.73	1.96 ± 0.39	1.78 ± 0.39	1.12 ± 0.34	0.769 ± 0.16	0.0016 ± 0.0019	2.21 ± 0.14
HCI-005.E2	1.82 ± 0.58	1.75 ± 0.35	1.8 ± 0.53	1.6 ± 0.47	0.674 ± 0.13	0.164 ± 0.06	0.00356 ± 0.0034	1.95 ± 0.13
HCI-017.E2	1.919 ± 0.0074	2 ± 0.1	2.23 ± 0.41	1.853 ± 0.007	1.22 ± 0.14	1.22 ± 0.22	0.00946 ± 0.0014	2.25 ± 0.22
